Test results taken from patent US20100267637A1, “TREATMENT OF MELANOMA WITH ALPHA THYMOSIN PEPTIDES IN COMBINATION WITH A KINASE INHIBITOR” (SciClone Pharmaceuticals, Inc., priority 2007, published 2010).

Tested on: murine B16 melanoma cells
Test: Anti-tumor effect: tumor size / tumor volume in mice bearing subcutaneous B16 melanoma
Format: in vivo, C57BL/6 mice
Set-up: key to Tumor measurement L (length) / Tumor measurement W (width): The sign “—” indicates that tumor does not reach a measurable size
Conditions: for Tumor Volume (cm^3) (Mean ± SD): group mean; for PI (TV), percent inhibition of tumor volume: vs vehicle; for Tumor volumes on Day 15: Length × Width × Width/2
Description: The toxic effects of the dosing regimens were also monitored. […] Meanwhile 9H10 was given in two groups via i.p. on Day 3, 6 and 9. […] Tumor volume and body weight were measured every three days, and tumor weights were measured on Day 16 at the end of the study.
As per aseptic tissue culture procedures, one vial of B16 melanoma cells was removed from the liquid nitrogen stock, and placed into a 37° C. water bath. Gentle swirling was conducted until the content of the vial was thawed. Using tissue culture/sterile procedures, the cells were immediately centrifuged with a TD5A-WS centrifuge at 1000 rpm, 20-25° C., 5 min. After centrifugation, the cells were suspended in 0.1 to 0.5 mL normal saline (NS) and subcutaneously injected into 10 mice (0.1 mL/mouse, about 1×10^6 cells). After 7-10 days, when the tumor diameter was approximately 1 cm, the animals were euthanized with CO2 overdose and the tumors excised. The procedure was repeated with 20 mice to generate a sufficient number of B16 melanoma cells with adequate transplantability.
On the day of tumor implantation, approximately 1×10^6 cells in 0.1 mL were subcutaneously injected on the right axillary area of each mouse. The day of tumor implantation was defined as Day 0.
On Day 3, the animals were randomly assigned into nine different weight-matched and tumor-size-matched groups. Dosing was started on Day 3 using the regimen according to Table 2.
From Day 1 to Day 15, mortality and moribundity were checked twice daily, the body weights were recorded once every 3 days, and tumors were measured using a caliper once every 3 days. At the end of the study (Day 16), the animals were euthanized by CO2 asphyxiation, and the tumors were excised and weighed.
Based on the tumor size, the tumor volume (TV) was calculated with the formula: [TV=(Length×Width×Width)/2]. And the percent inhibition (PI) of TV (PITV) was calculated according to the equation below:
PITV(%)=(TV vehicle−TVdrug treated)/TV vehicle×100
Inter-group comparison was performed in terms of tumor volume, tumor weight and body weight, using a student's t test. P values of less than 0.05 were considered to be statistically significant.

Compound: CN(C)/N=N/c1[nH]cnc1C(N)=O [DTIC, Dacarbazine]
- Tumor measurement L (length) (Day 3, animal F1): —
- Tumor measurement W (width) (Day 3, animal F1): —
- Tumor volume (Day 3, animal F1): 0.0000 cm^3
- Tumor measurement L (length) (Day 3, animal F2): —
- Tumor measurement W (width) (Day 3, animal F2): —
- Tumor volume (Day 3, animal F2): 0.0000 cm^3
- Tumor measurement L (length) (Day 3, animal F3): 0.20 cm
- Tumor measurement W (width) (Day 3, animal F3): 0.20 cm
- Tumor volume (Day 3, animal F3): 0.0040 cm^3
- Tumor measurement L (length) (Day 3, animal F4): —
- Tumor measurement W (width) (Day 3, animal F4): —
- Tumor volume (Day 3, animal F4): 0.0000 cm^3
- Tumor measurement L (length) (Day 3, animal F5): —
- Tumor measurement W (width) (Day 3, animal F5): —
- Tumor volume (Day 3, animal F5): 0.0000 cm^3
- Tumor measurement L (length) (Day 3, animal M1): —
- Tumor measurement W (width) (Day 3, animal M1): —
- Tumor volume (Day 3, animal M1): 0.0000 cm^3
- Tumor measurement L (length) (Day 3, animal M2): 0.10 cm
- Tumor measurement W (width) (Day 3, animal M2): 0.10 cm
- Tumor volume (Day 3, animal M2): 0.0005 cm^3
- Tumor measurement L (length) (Day 3, animal M3): —
- Tumor measurement W (width) (Day 3, animal M3): —
- Tumor volume (Day 3, animal M3): 0.0000 cm^3
- Tumor measurement L (length) (Day 3, animal M4): —
- Tumor measurement W (width) (Day 3, animal M4): —
- Tumor volume (Day 3, animal M4): 0.0000 cm^3
- Tumor measurement L (length) (Day 3, animal M5): 0.10 cm
- Tumor measurement W (width) (Day 3, animal M5): 0.10 cm
- Tumor volume (Day 3, animal M5): 0.0005 cm^3
- Tumor Volume (cm^3) (Mean ± SD) (Day 3): 0.001 ± 0.0012 cm^3
- PI (TV), percent inhibition of tumor volume (Day 3): −400.00%
- Tumor measurement L (length) (Day 6, animal F1): —
- Tumor measurement W (width) (Day 6, animal F1): —
- Tumor volume (Day 6, animal F1): 0.0000 cm^3
- Tumor measurement L (length) (Day 6, animal F2): —
- Tumor measurement W (width) (Day 6, animal F2): —
- Tumor volume (Day 6, animal F2): 0.0000 cm^3
- Tumor measurement L (length) (Day 6, animal F3): 0.10 cm
- Tumor measurement W (width) (Day 6, animal F3): 0.10 cm
- Tumor volume (Day 6, animal F3): 0.0005 cm^3
- Tumor measurement L (length) (Day 6, animal F4): —
- Tumor measurement W (width) (Day 6, animal F4): —
- Tumor volume (Day 6, animal F4): 0.0000 cm^3
- Tumor measurement L (length) (Day 6, animal F5): —
- Tumor measurement W (width) (Day 6, animal F5): —
- Tumor volume (Day 6, animal F5): 0.0000 cm^3
- Tumor measurement L (length) (Day 6, animal M1): —
- Tumor measurement W (width) (Day 6, animal M1): —
- Tumor volume (Day 6, animal M1): 0.0000 cm^3
- Tumor measurement L (length) (Day 6, animal M2): —
- Tumor measurement W (width) (Day 6, animal M2): —
- Tumor volume (Day 6, animal M2): 0.0000 cm^3
- Tumor measurement L (length) (Day 6, animal M3): —
- Tumor measurement W (width) (Day 6, animal M3): —
- Tumor volume (Day 6, animal M3): 0.0000 cm^3
- Tumor measurement L (length) (Day 6, animal M4): —
- Tumor measurement W (width) (Day 6, animal M4): —
- Tumor volume (Day 6, animal M4): 0.0000 cm^3
- Tumor measurement L (length) (Day 6, animal M5): —
- Tumor measurement W (width) (Day 6, animal M5): —
- Tumor volume (Day 6, animal M5): 0.0000 cm^3
- Tumor Volume (cm^3) (Mean ± SD) (Day 6): 0.000 ± 0.0002 cm^3
- PI (TV), percent inhibition of tumor volume (Day 6): 90.91%
- Tumor measurement L (length) (Day 9, animal F1): 0.20 cm
- Tumor measurement W (width) (Day 9, animal F1): 0.20 cm
- Tumor volume (Day 9, animal F1): 0.0040 cm^3
- Tumor volume (Day 9, animal F2): 0.0000 cm^3
- Tumor measurement L (length) (Day 9, animal F3): 0.10 cm
- Tumor measurement W (width) (Day 9, animal F3): 0.10 cm
- Tumor volume (Day 9, animal F3): 0.0005 cm^3
- Tumor measurement L (length) (Day 9, animal F4): 0.10 cm
- Tumor measurement W (width) (Day 9, animal F4): 0.10 cm
- Tumor volume (Day 9, animal F4): 0.0005 cm^3
- Tumor measurement L (length) (Day 9, animal F5): 0.10 cm
- Tumor measurement W (width) (Day 9, animal F5): 0.10 cm
- Tumor volume (Day 9, animal F5): 0.0005 cm^3
- Tumor measurement L (length) (Day 9, animal M1): 0.30 cm
- Tumor measurement W (width) (Day 9, animal M1): 0.30 cm
- Tumor volume (Day 9, animal M1): 0.0135 cm^3
- Tumor measurement L (length) (Day 9, animal M2): 0.30 cm
- Tumor measurement W (width) (Day 9, animal M2): 0.30 cm
- Tumor volume (Day 9, animal M2): 0.0135 cm^3
- Tumor measurement L (length) (Day 9, animal M3): 0.30 cm
- Tumor measurement W (width) (Day 9, animal M3): 0.30 cm
- Tumor volume (Day 9, animal M3): 0.0135 cm^3
- Tumor measurement L (length) (Day 9, animal M4): 0.30 cm
- Tumor measurement W (width) (Day 9, animal M4): 0.30 cm
- Tumor volume (Day 9, animal M4): 0.0135 cm^3
- Tumor measurement L (length) (Day 9, animal M5): 0.10 cm
- Tumor measurement W (width) (Day 9, animal M5): 0.10 cm
- Tumor volume (Day 9, animal M5): 0.0005 cm^3
- Tumor Volume (cm^3) (Mean ± SD) (Day 9): 0.006 ± 0.0065 cm^3
- PI (TV), percent inhibition of tumor volume (Day 9): 71.15%
- Tumor volume (Day 12, animal F1): 0.0625 cm^3
- Tumor measurements on Day 12, L (Day 12, animal F1): 0.50 cm
- Tumor measurements on Day 12, W (Day 12, animal F1): 0.50 cm
- Tumor volume (Day 12, animal F2): 0.0135 cm^3
- Tumor measurements on Day 12, L (Day 12, animal F2): 0.30 cm
- Tumor measurements on Day 12, W (Day 12, animal F2): 0.30 cm
- Tumor volume (Day 12, animal F3): 0.0135 cm^3
- Tumor measurements on Day 12, L (Day 12, animal F3): 0.30 cm
- Tumor measurements on Day 12, W (Day 12, animal F3): 0.30 cm
- Tumor volume (Day 12, animal F4): 0.1715 cm^3
- Tumor measurements on Day 12, L (Day 12, animal F4): 0.70 cm
- Tumor measurements on Day 12, W (Day 12, animal F4): 0.70 cm
- Tumor volume (Day 12, animal F5): 0.1350 cm^3
- Tumor measurements on Day 12, L (Day 12, animal F5): 0.3 cm
- Tumor measurements on Day 12, W (Day 12, animal F5): 0.30 cm
- Tumor volume (Day 12, animal M1): 0.1715 cm^3
- Tumor measurements on Day 12, L (Day 12, animal M1): 0.70 cm
- Tumor measurements on Day 12, W (Day 12, animal M1): 0.70 cm
- Tumor volume (Day 12, animal M2): 0.3645 cm^3
- Tumor measurements on Day 12, L (Day 12, animal M2): 0.90 cm
- Tumor measurements on Day 12, W (Day 12, animal M2): 0.90 cm
- Tumor volume (Day 12, animal M3): 0.5000 cm^3
- Tumor measurements on Day 12, L (Day 12, animal M3): 1.00 cm
- Tumor measurements on Day 12, W (Day 12, animal M3): 1.00 cm
- Tumor volume (Day 12, animal M4): 0.5000 cm^3
- Tumor measurements on Day 12, L (Day 12, animal M4): 1.00 cm
- Tumor measurements on Day 12, W (Day 12, animal M4): 1.00 cm
- Tumor volume (Day 12, animal M5): 0.0135 cm^3
- Tumor measurements on Day 12, L (Day 12, animal M5): 0.30 cm
- Tumor measurements on Day 12, W (Day 12, animal M5): 0.30 cm
- Tumor Volume (cm^3) (Mean ± SD) (Day 12): 0.195 ± 0.1932 cm^3
- PI (TV), percent inhibition of tumor volume (Day 12): 43.22%
- Tumor measurements on Day 15, L (Day 15, animal F1): 0.80 cm
- Tumor volumes on Day 15 (Day 15, animal F1): 0.2560 cm^3
- Tumor measurements on Day 15, W (Day 15, animal F1): 0.80 cm
- Tumor measurements on Day 15, L (Day 15, animal F2): 0.50 cm
- Tumor volumes on Day 15 (Day 15, animal F2): 0.0625 cm^3
- Tumor measurements on Day 15, W (Day 15, animal F2): 0.50 cm
- Tumor measurements on Day 15, L (Day 15, animal F3): 0.60 cm
- Tumor volumes on Day 15 (Day 15, animal F3): 0.1080 cm^3
- Tumor measurements on Day 15, W (Day 15, animal F3): 0.60 cm
- Tumor measurements on Day 15, L (Day 15, animal F4): 0.70 cm
- Tumor volumes on Day 15 (Day 15, animal F4): 0.1715 cm^3
- Tumor measurements on Day 15, W (Day 15, animal F4): 0.70 cm
- Tumor measurements on Day 15, L (Day 15, animal F5): 0.60 cm
- Tumor volumes on Day 15 (Day 15, animal F5): 0.1080 cm^3
- Tumor measurements on Day 15, W (Day 15, animal F5): 0.60 cm
- Tumor measurements on Day 15, L (Day 15, animal M1): 1.00 cm
- Tumor volumes on Day 15 (Day 15, animal M1): 0.5000 cm^3
- Tumor measurements on Day 15, W (Day 15, animal M1): 1.00 cm
- Tumor measurements on Day 15, L (Day 15, animal M2): 1.20 cm
- Tumor volumes on Day 15 (Day 15, animal M2): 0.8640 cm^3
- Tumor measurements on Day 15, W (Day 15, animal M2): 1.20 cm
- Tumor measurements on Day 15, L (Day 15, animal M3): 1.00 cm
- Tumor volumes on Day 15 (Day 15, animal M3): 0.5000 cm^3
- Tumor measurements on Day 15, W (Day 15, animal M3): 1.00 cm
- Tumor measurements on Day 15, L (Day 15, animal M4): 1.20 cm
- Tumor volumes on Day 15 (Day 15, animal M4): 0.8640 cm^3
- Tumor measurements on Day 15, W (Day 15, animal M4): 1.20 cm
- Tumor measurements on Day 15, L (Day 15, animal M5): 0.90 cm
- Tumor volumes on Day 15 (Day 15, animal M5): 0.3645 cm^3
- Tumor measurements on Day 15, W (Day 15, animal M5): 0.90 cm
- Tumor Volume (cm^3) (Mean ± SD) (Day 15): 0.380 ± 0.2991 cm^3
- PI (TV), percent inhibition of tumor volume (Day 15): 48.12%
